Assay results taken from patent publication US12599576B2 (ANTECIP BIOVENTURES II LLC, priority 2022, dated 2026).

Assays:
[1] = Solubility in water of the drug substance powder
[2] = test system: patients with agitation associated with Alzheimer's disease; experiment: Phase 2/3 randomized, double-blind, controlled clinical trial of DM/BU in agitation associated with Alzheimer's disease; assay type: in vivo, human
Protocol: A Phase ⅔ randomized, double-blind, controlled, multicenter, U.S. clinical trial was conducted to evaluate the efficacy and safety of DM/BU in patients with agitation associated with Alzheimer's disease. […] An independent data monitoring committee performed an interim futility analysis and recommended no further randomization to the bupropion arm. Subsequently, patients were randomized in a 1:1 ratio to receive DM/BU or placebo. […] The minimum score on the CMAI is 29, corresponding to the total absence of symptoms, with higher scores corresponding to greater agitation. The primary endpoint of the study was the change from baseline in the CMAI total score at Week 5. P-values were calculated based on least square mean estimates.
Inclusion criteria included male or female […], diagnosis of probable Alzheimer's disease, according to the 2011 NIA-AA criteria, diagnosis of agitation, according to the IPA provisional definition of agitation, MMSE score between 10 and 24, an NPI-AA score≥4, and community dwelling. Exclusion criterial included dementia of non-Alzheimer's type and current use of a selective serotonin reuptake inhibitor and/or a serotonin and norepinephrine inhibitor (SSRI/SNRI). Demographics and baseline characteristics are shown in Table 9 of U.S. Pat. No. 10,898,453.

[3] = CYP2D6 inhibited by administering quinidine; cited from earlier work
[4] = Inventor's clinical-trial finding: plasma levels in CYP2D6 poor metabolizers vs other patients after combination of bupropion and dextromethorphan; settings: combination of bupropion and dextromethorphan administered
[5] = Example 3 / FIG. 1: effect of CYP2D6 poor metabolizer status on pharmacokinetics of the tablet after 8 days of twice daily dosing; settings: tablet 45 mg dextromethorphan hydrobromide/105 mg bupropion hydrochloride, 8 days twice daily; reference extensive or ultra-extensive CYP2D6 metabolizers; GMR

In the case of `CC(NC(C)(C)C)C(=O)c1cccc(Cl)c1.Cl` (racemic) [Bupropion hydrochloride, (±)-1-(3-chlorophenyl)-2-[(1,1-dimethylethyl)amino]-1-propanone hydrochloride], the solubility in water [1] is reported as “highly soluble in water”.

With `Br.COc1ccc2c(c1)[C@]13CCCC[C@@H]1[C@H](C2)N(C)CC3` [Dextromethorphan hydrobromide, morphinan, 3-methoxy-17-methyl-, (9α, 13α, 14α), hydrobromide monohydrate] the solubility in water [1] was “sparingly soluble in water”.

With `CC(NC(C)(C)C)C(=O)c1cccc(Cl)c1` (centres unmarked) [bupropion] the “mean reduction from baseline in CMAI total score” value ([2]; Week 5 (primary endpoint), placebo 11.5, DM/BU vs placebo p=0.010) was 10.0 points, the “adverse event: diarrhea” value ([2]; both, human, in vivo, 5 weeks) was 6.1% and the “adverse event: dizziness” value ([2]; both, human, in vivo, 5 weeks) was 10.2%. For the same compound, the “adverse event: somnolence” value ([2]; both, human, in vivo, 5 weeks) was 4.1%, the “rate of discontinuation due to adverse events” value ([2]; both, human, in vivo, 5 weeks) was 2.0% and the “serious adverse events reported, patients” value ([2]; both, human, in vivo, 5 weeks) was 8.2%. For the same compound, the deaths in arm ([2]; one death in the placebo arm) was “one”.

For `COc1ccc2c(c1)[C@]13CCCC[C@@H]1[C@H](C2)N(C)CC3` [dextromethorphan], the “AUC0-12 of dextromethorphan higher for CYP2D6 poor metabolizers compared to non-poor metabolizers” value [3] is listed as “about 46%”, the “Cmax of dextromethorphan higher for poor metabolizers compared to non-poor metabolizers” value [3] is listed as “about 40%” and the “Cmax and AUC of dextromethorphan in poor metabolizers vs patients who are not poor metabolizers” value [4] is listed as “significantly higher”. For the same compound, the “increase in dextromethorphan AUC0-12 for CYP2D6 poor metabolizers” value [5] was 3.40 fold and the “increase in dextromethorphan Cmax for CYP2D6 poor metabolizers” value [5] was 3.00 fold.
